Assay results: patent publication US20260070921A1, “COMPOUND, ENDOPLASMIC RETICULUM STRESS INHIBITOR, PHARMACEUTICAL PRODUCT, OPHTHALMIC AGENT, EYE DROPS, COMPOSITION, AND METHOD FOR PRODUCING COMPOUND” (KYOTO UNIVERSITY, priority 2022, published 2026)

What was measured:
[1] = tested on: mouse embryonic fibroblasts (MEFs); assay: Tunicamycin assay using autophagy-deficient cells; type: cell-based; details: for Rescue from ER stress-induced cell death: wild-type MEFs, compound 1 100 μM, compound 6 25 μM, 18 h, tunicamycin 5.0 μg/mL 48 h
Procedure: Cellular protein aggregates are often cleared by cellular mechanisms, such as autophagy and ubiquitin-proteasome system. To examine the importance of these proteolytic pathways in the activity of compounds 1 and 6, their ability to inhibit tunicamycin-induced cytotoxicity in the presence of an autophagy or proteasome inhibitor (bafilomycin A1 or MG132, respectively) was measured. FIG. 9 is a graph showing the results of a tunicamycin assay using an autophagy or proteasome inhibitor. Cells were pre-incubated with compound 1 or compound 6 for 16 hours and then treated with tunicamycin (5.0 μg/mL) in the presence or absence of a specified substance for 48 hours. FIG. 9(A) is a graph showing measurements in the presence or absence of bafilomycin A1 (Baf A1, autophagy inhibitor). FIG. 9(B) is a graph showing measurements in the presence or absence of MG132 (proteasome inhibitor). Error bars represent s.d. (n=3). Statistical analysis was performed according to the one-way ANOVA and Dunnett's test. *P<0.05; n.s.: not significant. […] The concentrations used of the inhibitors were confirmed to be non-toxic to cells (FIGS. 31 and 32). To further study the role of autophagy, autophagy-deficient atg7^−/− and p62^−/− mouse embryonic fibroblasts (MEFs) were subjected to a tunicamycin assay. FIG. 10 is a graph showing the results of the tunicamycin assay using the autophagy-deficient cells. Wild-type (wt), atg7^−/−, or p62^−/− mouse embryonic fibroblasts (MEFs) were treated with molecule 1 (100 μM) or molecule 6 (25 μM) for 18 hours and then incubated with tunicamycin (5.0 μg/mL) for 48 hours. Error bars represent s.d. (n=3). Statistical analysis was performed according to the one-way ANOVA and Dunnett's test. *P<0.05, **P<0.01. ATG7 is an E1-like enzyme important for phagophore expansion, and p62 is an autophagy receptor for ubiquitinated substrates (Reference Material 20 below). Wild-type (wt), atg7^−/−, or p62^−/− MEF cells were treated with compound 1 or compound 6 for 18 hours, followed by treatment with tunicamycin (5.0 μg/mL) for 48 hours. […] Nat Rev Mol Cell Bio 2018, 19 (6), 349-364. https://doi.org/10.1038/s41580-018-0003-4.

[2] = tested on: pIRE1/IRE and p-eIF2/eIF2; assay: Endoplasmic reticulum stress pathway activation in myopic sclera; type: in vivo, mice; details: eye drop 3 weeks
Text: Thus, the attachment of a minus lens may enhance autophagy, and autophagy was not shown to be complete in the control group. […] This is thought to be the mechanism by which myopia progression is inhibited.

[3] = tested on: C57BL6J mice; assay: Lens-induced myopia in mice, eye drops; type: in vivo; details: −30 D lens 3 weeks, eye drop once a day
Procedure: (§1) A −30 diopter (unit of refractive index: D) lens was attached to the right eye of 3-week-old male C57BL6J mice, while only a lens frame was attached to the left eye, which served as a control eye. The lenses were worn for three weeks, and the refractive index and axial length of eyes were measured before and after attachment of the lenses. Concurrently with myopia induction, an eye drop, which is a 0.025 solution of X441A in PBS, was administered by instillation once a day every day. PBS was administered by eye drop to the control group (group administered with PBS). After 3 weeks of myopia induction and eye drop administration, the eyeballs were enucleated from the mice, and the sclera was isolated. Then, western blotting was performed to analyze the expression levels of p62, Atg5, and Atg12 in each group.

[4] = Reversibility of self-assembly on dilution (DCVJ fluorescence); type: physicochemical; details: dilution of preformed assemblies
Procedure: Compound 1 (100 μM) was incubated in DMEM (10% FBS, 0.5, DMSO) at 25° C. for 1 hour to allow it to form self-assemblies. A solution of pre-formed assemblies of compound 1 was diluted in various ratios with DMEM (10% FBS, 0.5% DMSO). All samples contained 1.0 μM DCVJ, an environmentally sensitive dye, to quantify the amount of self-assembly of compound 1 by fluorescence. If the self-assembly is irreversible (upper graph in the frame), the fluorescence signal is linear with respect to the amount of the compound. […] In the two graphs within the frame, the vertical axis represents fluorescence, and the horizontal axis represents concentration. […] A time-dependent decrease in fluorescence at 25 μM (as a monomer of compound 1) was also observed. Error bars represent s.d. (n=3).

[5] = tested on: Atg5, and Atg12; assay: Western blotting of sclera after myopia induction, Atg5/Atg12; type: in vivo, mice; details: eye drop 3 weeks
Procedure: as §1
(§2) After 3 weeks of myopia induction and eye drop administration, the eyeballs were enucleated from the mice, and the sclera was isolated. Then, western blotting was performed to analyze the expression levels of p62, Atg5, and Atg12 in the group administered with X441A and the group administered with PBS.

[6] = Confocal microscopy of Nile red-stained assemblies; type: physicochemical; details: cell culture medium, prolonged incubation (>5 hr)
Procedure: Doping with the environmentally sensitive dyes, Nile red and 9-(2,2-dicyanovinyl)julolidine (DCVJ), enabled detection of assembly formation by fluorescence spectroscopy and confocal microscopy. The relative amount of self-organization of compound 1 was quantified using DCVJ to form a DMEM-normalized dose-organization curve (FIG. 24). Fitting with a sigmoid curve gave an apparent half-maximal assembly concentration (AC50) of 29.7 μM for the molecules of compound 1. […] In confocal microscopy, assemblies of compound 1 stained with Nile red were readily detectable in PBS (pH of 7.4). In the cell culture medium, assemblies of compound 1 stained with Nile red were initially not visible due to the small particle size, but prolonged incubation (>5 hr) led to the formation of larger detectable assemblies (>1 μm in diameter).

[7] = tested on: p62; assay: Western blotting of sclera after myopia induction, p62; type: in vivo, mice; details: eye drop 3 weeks
Procedure: as §1, §2

[8] = Solubility; type: physicochemical; details: in DMSO

COc1ccc2c(c1)sc1c(=O)nc3nc(Nc4ccc(S(N)(=O)=O)cc4)ccn3c12 [compound 6]
Ability to rescue from ER stress-induced cell death ([1]; atg7−/− MEFs): severely impaired | Ability to rescue from ER stress-induced cell death ([1]; p62−/− MEFs): severely impaired | Rescue from ER stress-induced cell death [1]: rescued

NS(=O)(=O)c1ccc(Nc2ccn3c(n2)nc(=O)c2sc4cc(F)ccc4c23)cc1 [compound 1]
Activation of the endoplasmic reticulum stress pathway caused by myopia induction [2]: did not occur | Axial length elongation of eyes [3]: such changes were not observed | Myopic shift in refractive index [3]: such changes were not observed | Reversibility of self-assembly [4]: disintegration of the particles | Increase in expression of At5/Atg12 [5]: enhanced regardless of the administration of X441A | Diameter of detectable assemblies [6]: > 1 μm | Expression level of p62 [7]: decreased | Solubility [8]: readily soluble | Ability to rescue from ER stress-induced cell death ([1]; atg7−/− MEFs): severely impaired | Ability to rescue from ER stress-induced cell death ([1]; p62−/− MEFs): severely impaired | Rescue from ER stress-induced cell death [1]: rescued
